Data taken from patent publication US9260417B2, “Therapeutic methods and compositions involving allosteric kinase inhibition” (AMITECH THERAPEUTIC SOLUTIONS, INC., priority 2010, dated 2016).

Experiments:
CDC2L2 = CDC2L2 (Homo sapiens (Human), UniProt Q9UQ88); assay: KINOMEscan competitive binding assay; conditions: 10 uM
1205 Lu melanoma cells = assay: 1205 Lu melanoma subcutaneous xenograft; type: in vivo, mice; conditions: 50 mg/kg, bid, ip for 2 weeks
Method: Human 1205 Lu melanoma cells, which express BRAF V600E, were subcutaneously implanted into the flank of 6-8 week old female Nu/Nu mice. The tumor cells were trypsinized and resuspendend in 1:1 PBS:growth factor depeleted Matrigel (BD Biosciences) and […] containing 1×10^6 cells was injected into the flank. An excess of mice bearing tumors were utilized and groups of 6 animals were chosen based on the symmetry of the tumor and randomized to give each group an average of 50 mm^3 (day 10). […] The vehicle was 10% HS-15 (known as Solutol, BASF, Inc.) in 3.33% dextrose. Tumor growth was monitored by measuring the tumor length and width with precision calipers every 3 days and calculating tumor volume using the following formula: Tumor volume=0.5*(length)*(width)^2, provided the smaller measurement was utilized as the length.

CSNK1E = CSNK1E (Homo sapiens (Human), UniProt P49674); assay: KINOMEscan competitive binding assay; conditions: 10 uM
[1] = tested on: MDA-MB231 human breast carcinoma cells; assay: MDA-MB231 orthotopic breast cancer xenograft; type: in vivo, mice
Method: Tumors were generated by injection of MDA-MB231 human breast carcinoma cells (1×10^6 tumor cells in 50 μl of sterile PBS) into the mammary fatpad of 6-8 week old female Nu/Nu mice. Tumors were allowed to grow and the mice were randomized into two groups with an average tumor volume of 100 mm^3. […] Tumor growth was monitored by measuring the tumor length and width with precision calipers every 2 days and calculating tumor volume using the following formula: Tumor volume=0.5*(length)*(width)^2, provided the smaller measurement was utilized as the length. […] Scale bar 20 μM. […] Cells were lysed in RIPA buffer (50 mM Tris pH 7.4, 100 mM NaCl, 0.1% SDS, 1.0% TritonX-100, 1% deoxycholate) supplemented with complete protease inhibitor mixture (Roche), 50 mM NaF, and 1 mM Na3VO4 and centrifuged at 13,000 g for 10 min at 4° C. Protein concentration was determined by BCA assay and 30 μg of protein was loaded per lane of 10% SDS-PAGE gel. Immunohistochemistry in FIG. 18A was performed according to the manufacturer's recommendations (Vector Labs), on […] sections of paraffin-embedded tumors from the orthotopic xenograft breast cancer mouse model (MDA-MB231). For phospho-S338 CRAF immunohistochemistry, antigen retrieval was performed in citrate buffer pH 6.0 at 95° C. for 20 min. […]

PAK1 = PAK1 (Homo sapiens (Human), UniProt Q13153); assay: KINOMEscan competitive binding assay; conditions: 10 uM
GSK3B = GSK3B (Homo sapiens (Human), UniProt P49841); assay: KINOMEscan competitive binding assay; conditions: 10 uM
Text: (§1) In vitro kinase screen and competitive binding assay. Sorafenib as well as test compounds were submitted to Invitrogen and screened using their SelectScreen™ Profiling Service.

FLT3(N841I) = FLT3(N841I) (Homo sapiens (Human), UniProt P36888, N841I); assay: KINOMEscan competitive binding assay; conditions: 10 uM
Text: as §1

KIT(V559D, V654A) = KIT(V559D, V654A) (Homo sapiens (Human), UniProt P10721, V559D/V654A); assay: KINOMEscan competitive binding assay; conditions: 10 uM
Text: as §1

KIT(V559D, T670I) = KIT(V559D, T670I) (Homo sapiens (Human), UniProt P10721, T670I/V559D); assay: KINOMEscan competitive binding assay; conditions: 10 uM
Text: as §1

TIE2 = TIE2 (Homo sapiens (Human), UniProt Q02763); assay: KINOMEscan competitive binding assay; conditions: 10 uM
Text: as §1

EPHB4 = EPHB4 (Homo sapiens (Human), UniProt P54760); assay: KINOMEscan competitive binding assay; conditions: 10 uM
Text: as §1

[2] = tested on: VEGF-C induced lymphangiogenesis; assay: Lymph node lymphangiogenesis model (VEGF-C Matrigel); type: in vivo, mice; conditions: 200 μl of 5.25 mg/ml ip twice daily, 7 days
Method: (FIG. 12A) Images of local lymph node lymphangiogenesis model between saline and VEGF-C matrigel.
Lymphangiogenesis assays were performed by subcutaneously injecting 350 μl of cold Matrigel containing saline or […] of VEGF-C(R&D Systems, Minneapolis, Minn.) into wild-type C57B1/6 mice. […] After 7 days, lymph nodes were removed, embedded in OCT, frozen and sectioned. Thin sections (5 μm) were fixed in ice cold acetone for five minutes, permeabilized in 0.1% Triton X-100 in phosphate buffered saline (PBS), blocked in 8% normal donkey serum diluted in PBS for 1.5 hours at room temperature and then incubated with 2 μg/ml anti-murine Lyve-1 (RDI-103PA50) in 8% normal donkey serum diluted in saline overnight at 4° C. After extensive washing, slides were incubated with 1 μg/ml cross-absorbed donkey anti-rabbit IgG (H+L) conjugated with Alexa Fluor 488 (Invitrogen). Slides were counterstained with DAPI. Coverslips were mounted with Dako Cytomation fluorescent mounting medium (Dako Corporation, Carpinteria, Calif.). At least five microscopic fields per tissue section/mouse were analyzed for quantification studies.

PKAC-alpha = PKAC-alpha (Homo sapiens (Human), UniProt P17612); assay: KINOMEscan competitive binding assay; conditions: 10 uM
PIM1 = PIM1 (Homo sapiens (Human), UniProt P11309); assay: KINOMEscan competitive binding assay; conditions: 10 uM
1205Lu = assay: Tumor cell viability; type: cell-based, human; conditions: Melanoma 1205Lu, B-RAF V600E
XPA1-RFP = assay: Tumor cell viability; type: cell-based, human; conditions: Pancreatic AC XPA1-RFP, K-Ras

CSc1nc(N)cc(Oc2ccc(-c3nnc(Nc4cccc(C(F)(F)F)c4)[nH]3)cc2)n1 [Compound 6]
% Control (CDC2L2): 83%
melanoma tumor growth (1205 Lu melanoma cells): suppresses melanoma tumor growth in vivo
% Control (CSNK1E): 47%
breast tumor growth compared to vehicle ([1]; 50 mg/kg, bid, ip): suppresses tumor growth
phosphorylation of CRAF S338 in breast tumors ([1]; three consecutive days, tumors resected 1 h after final dose): clearly inhibits phosphorylation of S338
% Control (PAK1): 100%
% Control (GSK3B): 90%
% Control (FLT3(N841I)): 3.1%
% Control (KIT(V559D, V654A)): 15%
% Control (KIT(V559D, T670I)): 56%
% Control (TIE2): 88%
% Control (EPHB4): 94%
lymphangiogenesis in lymph nodes [2]: clearly showed inhibition of lymphangiogenesis
% Control (PKAC-alpha): 100%
% Control (PIM1): 96%
EC50 (1205Lu): 830 nM
EC50 (XPA1-RFP): 280 nM
